According to patent US20210115104A1, “AMYLIN ANALOGUES” (Zealand Pharma A/S, priority 2015, published 2021):
*1 amine or outer side, *2 acyl side, *3 side chain or, on linkers, in order; H or OH if unused. Where a SMILES comes first, the peptide text is derived from it. Bridges are numbered along the chain shown (N, C = ends). [ ]: non-standard residue; d: D form. The star is where a group is joined. C20 diacid = O=C(O)CCCCCCCCCCCCCCCCCCC(=O)*; γGlu = O=C(O)[C@H](CCC(=O)[*:2])N[*:1]; Hyp = O=C(O)[C@@H]1C[C@@H](O)CN1; NMeI = CC[C@H](C)[C@H](NC)C(=O)O; Orn = NCCC[C@H](N)C(=O)O; Sar = CNCC(=O)O

Assays:
[1] = Assessment of physical stability (Thioflavin T fibrillation); format: physicochemical; parameters: key: FND = fibrillation not detected; FD = fibrillation detected; conditions: 1 mg/ml, 40° C., ThT; for Fibrillation pH 4.0 (Ac): 50 mM acetate buffer pH 4.0, 96 hours; for Fibrillation pH 7.0 (His): 50 mM histidine buffer pH 7.0, 96 hours; for Fibrillation pH 7.0 (Phos.): 50 mM phosphate buffer pH 7.0, 96 hours
Method in brief: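 1 mg/ml peptide with 40 μM ThT in 50 mM phosphate pH 7.0, 50 mM histidine pH 7.0 or 50 mM acetate pH 4.0, in triplicate. Fluorescence read every 10 min after 300 s agitation over 96 h at 40 °C. Lag-time (h) is the intersection of linear fits to stable and growth phases.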

[2] = target: T1, human calcitonin receptor (hCTR2) (Homo sapiens, UniProt P30988); assay: hCTR2 cAMP assay (AlphaScreen) in COS7 cells; format: cell-based; conditions: cAMP induction, COS7 cells expressing hCTR2; Table 1; read-out: hCTR2 EC50
T1 construct: expressed in transfected cells
T1 sequence (P30988 25-474): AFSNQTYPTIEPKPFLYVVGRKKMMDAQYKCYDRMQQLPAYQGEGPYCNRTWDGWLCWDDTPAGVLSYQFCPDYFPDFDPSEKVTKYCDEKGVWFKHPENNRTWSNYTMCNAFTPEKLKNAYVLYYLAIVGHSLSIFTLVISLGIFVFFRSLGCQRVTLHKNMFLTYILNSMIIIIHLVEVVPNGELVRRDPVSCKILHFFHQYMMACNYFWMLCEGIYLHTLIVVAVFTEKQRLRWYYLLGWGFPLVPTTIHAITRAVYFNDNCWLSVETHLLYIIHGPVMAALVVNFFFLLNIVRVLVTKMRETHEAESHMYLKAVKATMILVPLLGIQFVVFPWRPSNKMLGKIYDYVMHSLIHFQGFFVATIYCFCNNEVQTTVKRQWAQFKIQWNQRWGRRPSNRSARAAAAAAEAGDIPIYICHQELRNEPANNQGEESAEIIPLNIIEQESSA
Method in brief: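 Stable hCTR2 clone in RAMP-naïve COS7 cells stimulated 15 min at 37 °C with increasing peptide concentrations in Tyrode buffer pH 7.4 containing IBMX and 0.1% casein. cAMP in lysates measured by AlphaScreen; EC50 from 4-parameter logistic fit.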

[3] = Assessment of chemical stability (RP-HPLC normalized purity); format: physicochemical; conditions: 7 days, 40° C., Table 1; for Normalized purity after 7 days, 40° C., pH 4: pH 4, 0.2 mg/ml; for Normalized purity after 7 days, 40° C., pH 6: pH 6, 0.2 mg/ml; for Normalized purity after 7 days, 40° C., pH 7.5: pH 7.5, 0.2 mg/ml; for Normalized purity after 7 days, 40° C., pH 9: pH 9, 0.2 mg/ml
Method in brief: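 Peptides at 0.2 mg/ml in water adjusted to pH 4, 6, 7.5 or 9, incubated at 40° C for 7 days. Main-peak area-% by RP-HPLC (C8 ammonium formate or C18 TFA gradient, UV 220 nm), normalized to T=0 as 100.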

[4] = target: T2, human amylin receptor 3 (hAMYR3), hCTR2 co-expressed with hRAMP3 (Homo sapiens, UniProt O60896+P30988); assay: hAMYR3 cAMP assay (AlphaScreen) in COS7 cells; format: cell-based; conditions: cAMP induction, COS7 cells expressing hAMYR3; Table 1; read-out: hAMYR3 EC50
T2 construct: expressed in transfected cells
T2 sequence (P30988 25-474): T1 sequence (P30988 25-474)
T2 sequence (O60896 24-148 partner): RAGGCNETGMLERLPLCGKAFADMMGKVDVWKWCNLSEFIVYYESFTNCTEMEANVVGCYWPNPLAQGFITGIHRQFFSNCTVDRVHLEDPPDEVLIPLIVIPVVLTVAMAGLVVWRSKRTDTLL
Method in brief: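 Stable COS7 clone co-expressing hCTR2 and hRAMP3 was exposed to increasing peptide concentrations in Tyrode buffer (pH 7.4) with 100 µM IBMX and 0.1% casein for 15 min at 37 °C. Lysate cAMP was measured by AlphaScreen; EC50 came from 4-parameter logistic fitting.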

Structure (SMILES) | Fibrillation pH 4.0 (Ac) [1] | Fibrillation pH 7.0 (His) [1] | Fibrillation pH 7.0 (Phos.) [1] | EC50 [2] | Normalized purity after 7 days, 40° C., pH 4 [3] | Normalized purity after 7 days, 40° C., pH 6 [3] | Normalized purity after 7 days, 40° C., pH 7.5 [3] | Normalized purity after 7 days, 40° C., pH 9 [3] | EC50 [4]
CC[C@H](C)[C@@H](C(=O)N[C@@H](CC(C)C)C(=O)N[C@@H](CO)C(=O)N[C@@H](CO)C(=O)N[C@H](C(=O)N[C@@H](CCC(=O)O)C(=O)N[C@H](C(=O)NCC(=O)N[C@@H](CO)C(=O)N[C@@H](CO)C(=O)N[C@H](C(=O)N1CCC[C@H]1C(N)=O)[C@@H](C)O)C(C)C)[C@@H](C)O)N(C)C(=O)[C@H](C)NC(=O)CN(C)C(=O)[C@H](Cc1ccccc1)NC(=O)[C@H](CO)NC(=O)[C@H](CO)NC(=O)[C@H](CCCNC(=N)N)NC(=O)[C@H](CC(N)=O)NC(=O)[C@H](CC(C)C)NC(=O)[C@H](Cc1ccccc1)NC(=O)[C@H](Cc1c[nH]cn1)NC(=O)[C@H](C)NC(=O)[C@H](CC(C)C)NC(=O)[C@H](CCCNC(=N)N)NC(=O)[C@H](CCC(=O)O)NC(=O)[C@@H](NC(=O)[C@H](C)NC(=O)[C@@H]1CSSC[C@H](NC(=O)[C@H](CCCNC(=N)N)NC(=O)CC[C@H](NC(=O)CCCCCCCCCCCCCCCCCCC(=O)O)C(=O)O)C(=O)NCC(=O)N[C@@H]([C@@H](C)O)C(=O)N[C@@H](C)C(=O)N[C@@H]([C@@H](C)O)C(=O)N1)[C@@H](C)O [Compound 35, [19CD]-isoGlu-R-C( )-GTAT-C( )-ATERLAHFLNRSSF-Gly(Me)-A-Ile(Me)-LSSTEVGSSTP-NH2] ({C20 diacid-γGlu}-RCGTATCATERLAHFLNRSSF[Sar]A[NMeI]LSSTEVGSSTP-NH2; disulfide 2-7) | FND | FND | FND | 50 pM | A (A = >90%) | A (A = >90%) | B (B = 70-90%) | B (B = 70-90%) | 110 pM
CC[C@H](C)[C@@H](C(=O)N[C@@H](CC(C)C)C(=O)N[C@@H](CO)C(=O)N[C@@H](CO)C(=O)N[C@H](C(=O)N[C@@H](CCC(=O)O)C(=O)N[C@H](C(=O)NCC(=O)N[C@@H](CO)C(=O)N[C@@H](CCCN)C(=O)N[C@H](C(=O)N1C[C@H](O)C[C@H]1C(N)=O)[C@@H](C)O)C(C)C)[C@@H](C)O)N(C)C(=O)[C@H](C)NC(=O)CN(C)C(=O)[C@H](Cc1ccccc1)NC(=O)[C@H](CO)NC(=O)[C@H](CO)NC(=O)[C@H](CCCNC(=N)N)NC(=O)[C@H](CCC(N)=O)NC(=O)[C@H](CC(C)C)NC(=O)[C@H](Cc1ccccc1)NC(=O)[C@H](Cc1c[nH]cn1)NC(=O)[C@H](C)NC(=O)[C@H](CC(C)C)NC(=O)[C@H](CCCNC(=N)N)NC(=O)[C@H](CCC(=O)O)NC(=O)[C@@H](NC(=O)[C@H](C)NC(=O)[C@@H]1CSSC[C@H](NC(=O)[C@H](CCCNC(=N)N)NC(=O)CC[C@H](NC(=O)CCCCCCCCCCCCCCCCCCC(=O)O)C(=O)O)C(=O)NCC(=O)N[C@@H]([C@@H](C)O)C(=O)N[C@@H](C)C(=O)N[C@@H]([C@@H](C)O)C(=O)N1)[C@@H](C)O [Compound 51, [19CD]-isoGlu-R-C( )-GTAT-C( )-ATERLAHFLQRSSF-Gly(Me)-A-Ile(Me)-LSSTEVGS-Orn-T-Hyp-NH2] ({C20 diacid-γGlu}-RCGTATCATERLAHFLQRSSF[Sar]A[NMeI]LSSTEVGS[Orn]T[Hyp]-NH2; disulfide 2-7) | FND | FND | FND | 80 pM | A (A = >90%) | B (B = 70-90%) | B (B = 70-90%) | B (B = 70-90%) | 110 pM
